Values quoted from earlier work in patent publication US20240299384A1, “METHODS FOR TREATING PULMONARY HYPERTENSION IN PATIENTS WITH LEFT VENTRICULAR ASSIST DEVICE IMPLANTATION” (ACTELION PHARMACEUTICALS LTD, priority 2021, published 2024).

Assays:
[1] = cited from earlier work
ET receptors = conditions: cited from earlier work

NS(=O)(=O)Nc1ncnc(OCCOc2ncc(Br)cn2)c1-c1ccc(Br)cc1 [ACT-132577]
time to peak plasma concentration ([1]; after the first dose of macitentan): about 30 hours | half-life ([1]; humans): approximately 48 hours | plasma concentrations relative to macitentan ([1]; humans): higher plasma concentrations | affinity for the ET receptors relative to parent compound (ET receptors): lower affinity
